Test results published in patent publication US6521662B2, “Ceramide-like compounds having antioxidant property and a method for preparation thereof, and a cosmetic composition containing the same” (Pacific Corporation, priority 2000, dated 2003).

Key:
[1] = Anti-oxidative activity using linoleic acid; conditions: ammoniumthiocyanate, after 3 minutes, lower absorbance means higher anti-oxidative activity
Method: Anti-oxidative activity using linoleic acid
Linoleic acid is easily oxidized to be peroxide due to double bond contained therein. Therefore, this experiment utilized the above property.
The control solution employed in this experiment was prepared by adding 2.88 ml of 2.5% linoeic acid in ethanol and 9 ml of 40 mmol phosphate buffer(pH 7.0) to 200 ml of ethanol. This control solution was maintained in the dark of 40° C. And, sample solutions were prepared by adding 9.7 ml of 75% ethanol, 0.1 ml of 30% ammoniumthiocyanate and 0.1 ml of each sample, to 0.1 ml of the control solution. After 3 minutes, the absorbance was measured at 500 nm by using a UV spectrophotometer. Lower absorbance value means higher anti-oxidative activity.

[2] = Anti-oxidative activity using DPPH; conditions: 37° C. for 30 minutes; UV spectrophotometer
Method: Anti-oxidative activity using DPPH
Diphenylpicrylhydrazyl(DPPH) has been known as a radical reaction inhibitor which is stabilized by the radical reaction. Also, it has a chromophoric property with compounds having anti-oxidative activity. Therefore, this experiment utilized the above property.
About 50 ml of DPPH was introduced into the test tube. And samples were added dropwise thereto. After addition, the test tube was maintained in constant temperature bath of 37° C. for 30 minutes. The extent of color development was measured by UV spectrophotometer.

[3] = Solubility of natural ceramide and ceramide-like compounds in cosmetic solvents; type: physicochemical; conditions: 20° C.; dissolved at 80° C. then cooled to 20° C.
Method: The solubility of a natural ceramide and of ceramide-like compounds:
Ceramide Type 3 represented by the following formula (III) has been mainly used in cosmetics. Accordingly, in this experiment were compared solubility of the ceramide Type 3 (obtained from bovine brain) and the ceramide-like compounds of Examples 1 to 3 in various solvents such as ethanol, which have been widely used in cosmetics. Samples were dissolved in the solvents of 80° C. then cooled to 20° C.

Solubility in Cetyl octanoate [3]	Solubility in Ethanol [3]	Solubility in Isopropyl palmitate [3]	Solubility in Octyl Palmitate [3]	Solubility in Octyl dodecanol [3]	Compound	Absorbance at 500 nm (Experiment Example 5-2) [1]	Color development with DPPH (Experiment Example 5-1) [2]
>5% wt/wt %	>5% wt/wt %	>5% wt/wt %	>5% wt/wt %	>5% wt/wt %	Cc1cc(OC(=O)CCC(=O)N(CCO)CC(O)CN(CCO)C(=O)CCC(=O)Oc2cc(C)c3c(c2)CCC(C)(CCCC(C)CCCC(C)CCCC(C)C)O3)cc2c1OC(C)(CCCC(C)CCCC(C)CCCC(C)C)CC2 (stereo not drawn) [Example 2, 1,3-bis(N-(2-hydroxyethyl)-δ-tocopherylsuccinoylamino) -2-hydroxypropane]	0.29	Brown
>5% wt/wt %	>5% wt/wt %	>5% wt/wt %	>5% wt/wt %	>5% wt/wt %	Cc1c(OC(=O)CCC(=O)N(CCO)CC(O)CN(CCO)C(=O)CCC(=O)Oc2cc3c(c(C)c2C)OC(C)(CCCC(C)CCCC(C)CCCC(C)C)CC3)cc2c(c1C)OC(C)(CCCC(C)CCCC(C)CCCC(C)C)CC2 (stereo not drawn) [Example 3, 1,3-bis(N-(2-hydroxyethyl)-γ-tocopherylsuccinoylamino)-2-hydroxypropane]	0.30	Brown
<1% wt/wt %	<1% wt/wt %	<1% wt/wt %	<1% wt/wt %	<1% wt/wt %	CCCCCCCCCCCCCCCCCCCCCCCC(=O)NC(CO)C(O)C(O)CCCCCCCCCCCCCC (stereo not drawn) [Natural Ceramide (type 3), reference compound]		
					CC(=O)Oc1c(C)c(C)c2c(c1C)CCC(C)(CCC[C@H](C)CCC[C@H](C)CCCC(C)C)O2 (stereo partly drawn) [Vitamin E acetate, reference compound]	0.44	No color change
					Vitamin E [reference compound]	0.23	No color change

Compound	Solubility in Cetyl octanoate [3]	Solubility in Ethanol [3]	Solubility in Isopropyl palmitate [3]	Solubility in Octyl Palmitate [3]	Solubility in Octyl dodecanol [3]	Absorbance at 500 nm (Experiment Example 5-2) [1]	Color development with DPPH (Experiment Example 5-1) [2]
Cc1c(C)c2c(c(C)c1OC(=O)CCC(=O)N(CCO)CC(O)CN(CCO)C(=O)CCC(=O)Oc1c(C)c(C)c3c(c1C)CCC(C)(CCCC(C)CCCC(C)CCCC(C)C)O3)CCC(C)(CCCC(C)CCCC(C)CCCC(C)C)O2 (stereo not drawn) [Example 1, 1,3-bis(N-(2-hydroxyethyl)-α-tocopherylsuccinoylamino) -2-hydroxypropane]	>5% wt/wt %	>5% wt/wt %	>5% wt/wt %	>5% wt/wt %	>5% wt/wt %	0.23	Brown
